“Also recorded” adds a separate entry of the source.
Legend:
[1] = tested on: ICR mice; assay: Light-dark box; format: in vivo
[2] = Gastrointestinal hemorrhage; details: in vivo
[3] = tested on: ICR mice; assay: Elevated plus-maze (EPM); format: in vivo; details: 10 mg/kg
[4] = tested on: peripheral tissue eCB, NAE, MAG and PG levels; assay: Peripheral tissue NAE, MAG and PG levels after i.p. injection; format: in vivo, mice
Experimental: Mice were sacrificed by cervical dislocation and decapitation. The brain, lungs, liver, stomach, small intestines, and kidneys were then rapidly removed and frozen on a metal block in dry ice. The tissue was then placed in a tube and stored at −80° C. until extraction, usually one day after harvesting. For PG and eCB analysis, lipid extraction from tissue was carried out as described in Patel et al., 2009.
Analytes were quantified using LC-MS/MS on a Quantum triple-quadrupole mass spectrometer in positive-ion mode using selected reaction monitoring. Detection of eicosanoids was performed as described in Kingsley & Marnett, 2007. For fatty acid analysis the mobile phases used were 80 μM AgOAc with 0.1% (v/v) acetic acid in H2O (solvent A) and 120 μM AgOAc with 0.1% (v/v) acetic acid in MeOH (solvent B). The analytes were eluted using a gradient from 20% A to 99% B over 5 minutes. The transitions used were m/z 300→282 for PEA, m/z 328→310 for SEA, m/z 434→416 for OEA, m/z 456→438 for AEA, m/z 464→446 for AEA-d8, m/z 331→257 for 2-PG, m/z 359→285 for 2-SG, m/z 463→389 for 2-OG, m/z 485→411 for 2-AG, m/z 493→419 for 2-AG-d8, m/z 519→409 for AA, and m/z 527→417 for AA-d8. Peak areas for the analytes were normalized to the appropriate internal standard and then normalized to tissue mass for in vivo samples. […]

[5] = molecular target: T1, human MGL-His (MAGL) (Homo sapiens, UniProt Q99685); assay: MAGL activity (Compound A); format: biochemical; details: in vitro
T1 construct: His; made in house; host or cells: E. coli BL21(DE3) pLysS
T1 sequence (Q99685 1-303): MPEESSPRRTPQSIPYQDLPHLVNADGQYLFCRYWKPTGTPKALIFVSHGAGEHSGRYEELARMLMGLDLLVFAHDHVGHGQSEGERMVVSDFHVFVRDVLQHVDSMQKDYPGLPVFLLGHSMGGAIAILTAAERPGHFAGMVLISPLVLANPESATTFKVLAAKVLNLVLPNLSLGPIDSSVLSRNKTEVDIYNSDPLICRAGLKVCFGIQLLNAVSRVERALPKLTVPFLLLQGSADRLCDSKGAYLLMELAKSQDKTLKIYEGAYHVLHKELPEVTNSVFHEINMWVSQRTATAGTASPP

[6] = molecular target: T2, COX-2 in stimulated RAW 264.7 macrophages (Mus musculus, UniProt Q05769); assay: RAW 264.7 macrophage inhibition assay (Compound A); format: cell-based
T2 construct: endogenous in cells; host or cells: RAW 264.7 macrophages stimulated with LPS (and GM-CSF / interferon γ where described)
T2 sequence (Q05769 18-604): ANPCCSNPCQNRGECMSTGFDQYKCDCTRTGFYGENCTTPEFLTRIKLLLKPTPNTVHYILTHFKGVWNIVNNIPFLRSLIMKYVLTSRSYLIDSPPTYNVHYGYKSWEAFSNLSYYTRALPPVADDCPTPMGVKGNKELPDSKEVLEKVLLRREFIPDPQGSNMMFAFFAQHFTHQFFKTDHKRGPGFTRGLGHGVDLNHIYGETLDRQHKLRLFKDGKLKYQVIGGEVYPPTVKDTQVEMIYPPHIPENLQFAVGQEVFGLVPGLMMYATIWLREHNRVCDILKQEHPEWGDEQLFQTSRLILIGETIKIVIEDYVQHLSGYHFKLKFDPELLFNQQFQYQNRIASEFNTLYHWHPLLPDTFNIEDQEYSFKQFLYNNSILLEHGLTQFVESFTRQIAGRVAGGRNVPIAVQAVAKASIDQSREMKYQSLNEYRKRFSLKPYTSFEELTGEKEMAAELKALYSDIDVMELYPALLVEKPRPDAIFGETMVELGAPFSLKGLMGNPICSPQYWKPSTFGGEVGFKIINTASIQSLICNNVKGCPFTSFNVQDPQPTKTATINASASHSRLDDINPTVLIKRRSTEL

[7] = 10 mg/kg, two hours after injection
[8] = lipopolysaccharide-activated RAW 264.7 macrophages
[9] = stimulated RAW 264.7 macrophages

COc1ccc2c(c1)c(CC(=O)N1CCOCC1)c(C)n2C(=O)c1ccc(Cl)cc1 [Compound A, 2-[1-(4-Chloro-benzoyl)-5-methoxy-2-methyl-1H-indol-3-yl]-1-morpholin-4-yl-ethanone]
Light-zone time ([1]; 10 mg/kg): significantly increased
Number of light-zone entries ([1]; 10 mg/kg): significantly increased
Overall locomotor activity in the light-dark box ([1]; 10 mg/kg): without significantly affecting
Anxiolytic effects in the light-dark box with Rimonabant ([1]; Rimonabant 3 mg/kg): blocked
Gastrointestinal hemorrhage [2]: not to cause gastrointestinal hemorrhage
Open arm latency [3]: significantly reduced; also recorded: decreased
Other EPM parameters (open arm time, total distance traveled) [3]: did not affect; also recorded: did not increase
AEA levels in the kidney [4, 7]: significantly increased
AEA levels in the lung [4, 7]: significantly increased
AEA levels in the small intestine [4, 7]: significantly increased
AEA levels in the stomach [4, 7]: significantly increased
Liver NAE levels ([4]; liver): did not affect
2-AG or any other MAG in any tissue ([4]; peripheral tissues, 10 mg/kg): no effect
Levels of any other NAE in any tissue ([4]; peripheral tissues, 10 mg/kg): did not affect
PG levels in peripheral tissues ([4]; stomach, heart, kidney, lung, intestine): no effect
Inhibition of MAGL [5]: did not inhibit
Inhibition of AA oxygenation in cells [6, 8]: without inhibiting AA oxygenation
Inhibition of eCB oxygenation by COX-2 in cells [6, 8]: effective at inhibiting eCB oxygenation
2-AG levels [6, 9]: increasing; also recorded: concentration-dependently increased
AA levels [6, 9]: without increasing AA levels
2-AG levels ([6]; stimulated RAW 264.7 macrophages, 3 μM (p=0.007)): significantly increased
